Ends that are not written are not given here. * marks the point of attachment. For = O=C*
Tests used:
[1] = test system: Wnt-5a antisense HB2 cells; experiment: Adhesion of Wnt-5a antisense HB2 cells to collagen I (MTS); type: cell-based, human; conditions: for adhesion to collagen I, concentration-dependent analysis: 95% pure peptides, different concentrations
Experimental: (§1) The adhesion assay was carried out as previously described (12). Briefly, cells were serum-depleted for 16 h, detached with Versene and allowed to adhere as single cells to collagen I for 60 (MDA-MB-468) or 90 min (HB2) at 37° C. Non-adherent cells were removed by washing with PBS. The adherent cells were incubated with a (3-(4,5-dimethylthiazol-2-yl)-5-(3-carboxymethoxyphenyl)-2-(-4-sulfophenyl)-2H-tetrazolium, inner salt (MTS) dye reduction assay (Promega, Madison, Wis.) and absorbance was measured at 490 nm using a Fluostar microplate reader from BMG LabTechnologies (GmbH, Offenberg, Germany). In each experiment a single value was calculated based on the mean of adhesion from six separate wells after the adhesion to plastic alone had been subtracted. The CM used as a control in the adhesion assays was obtained from confluent Wnt-5a overexpressing HB2 cells (for experiments with Wnt-5a antisense HB2 cells) or Wnt-5a overexpressing MCF-7 cells (for MDA-MB-468 cells) stably transfected with a vector over-expressing Wnt5a. A collected CM was always used within three days.
To control the specificity of the CM, it was incubated with either the Wnt-5a or a control Ab for 45 min at 37° C. Subsequently 10 μl Protein A Sepharose was added for 30 min and after the protein A-bound antibodies were collected by centrifugation the remaining supernatants were used for the experiments.
Effects of crude peptides on adhesion of Wnt-5a antisense HB2 cells to collagen. (A) Single cells were allowed to adhere for 90 min in the absence or presence of the indicated crude peptides (100 μM). The amounts of adhesive cells were analyzed as described in the methods and the results are given as means±SEM of 7 separate experiments. (B) Adhesion of Wnt-5a antisense HB2 cells to collagen was analyzed after pre-treating the cells with an anti-[…]1-integrin Ab for 45 min before letting them adhere for 90 min in the absence or presence of peptides 171 or 175 (100 μM) or CM. The amounts of adhesive cells were analyzed as described in the methods and the results are given as means±SEM of 6 separate experiments (C) The diagram outlines a control of the presently used CM. The cells were allowed to adhere to collagen I-coated wells in the absence or presence of normal CM or Wnt-5a depleted CM. The amounts of adhesive cells were analyzed as described in the methods and the results are given as means±SEM of 6 separate experiments. Ns=not significant, * p<0.05, ** p<0.01 and *** p<0.001.
Effects of the selected and pure peptides on the ability of Wnt-5a antisense HB2 cells to adhere and migrate. (A-E) The ability of the cells to adhere to collagen type I-coated wells was analyzed as previously described for FIG. 2 in the absence or presence of different concentrations of the indicated peptide. (F) Effect of the indicated peptides on migration of Wnt-5a antisense HB2 in a transwell migration assay. The cells were allowed to migrate for 18 h in the absence or presence of 100 μM peptide or 0.4 μg/ml of recombinant Wnt5a. The data are given as means±SEM of 6-7 separate experiments, each performed in triplicate. * p<0.05 and ** p<0.01.

MDA-MB-468 cells [2] = experiment: Adhesion of MDA-MB-468 breast cancer cells to collagen I (MTS); type: cell-based, human; conditions: for adhesion to collagen I, N-terminal deletion variants and formylation of peptide 175: 60 min; for MDA-MB-468 cell adhesion: control 15.3±3.6, n=6
Experimental: as §1
Peptide-induced effects on adhesion and DDR1 phosphorylation in MDA-MB-468 breast cancer cells. (A) Western blot analysis of Wnt-5a protein expression in Wnt-5a antisense and Wnt-5a over-expressing HB2 cells in comparison to MDA-MB-468 tumour cells. The blot is representative of 9 separate experiments. (B) Peptide-induced effects on MDA-MB-468 tumour cell adhesion. The cells were allowed to adhere to collagen type I-coated wells for 60 min in the absence or presence of 100 μM of the indicated peptides or CM. The amounts of adhesive cells were analyzed as described in the methods and the results are given as means±SEM of 8 separate experiments. (C) MDA-MB-468 cell adhesion to collagen I-coated wells in the absence or presence of peptide 175 or a peptide with same amino acid sequence except for a substitution of cysteine for alanine (175Ala) or CM. The amount of adherent cells was estimated as in panel A and expressed as means±SEM of 6 separate experiments, ns=not significant, ** p<0.01 and *** p<0.001. (D) Single MDA-MB-468 cells were allowed to adhere to collagen I-coated plates for 60 min in the absence or presence of the indicated peptides (100 μM), CM or recombinant Wnt-5a (0.8 µg/ml). DDR1 immunoprecipitates were Western blotted with first an anti-phosphotyrosine Ab and then after stripping with an anti-DDR1 Ab. The blots shown are representative of 6 separate experiments.
(§2) Effects of peptide 175 modifications on its ability to induce MDA-MB-468 tumour cell adhesion and migration. (A) The cells were allowed to adhere for 60 min to collagen-I coated wells in the absence or presence of peptide 175, three stepwise N-terminal deletion variants of peptide 175 or a formylated version of the tested hexapeptide derived from peptide 175. The amounts of adhesive cells were analyzed as described in the methods and the results are given as means±SEM of 6 separate experiments. (B and C) The cells were allowed to migrate for 18 h in the absence or presence of 1 or 10 μM of peptide 175 (B) or the formylated hexapeptide (C). The data are given as means±SEM of 6 separate experiments, each performed in triplicate. * p<0.05, p<0.01.

DDR1 = experiment: Collagen-induced DDR1 phosphorylation in Wnt-5a antisense HB2 cells (immunoprecipitation/Western blot); type: cell-based, human; conditions: crude peptide (approximately 65% pure) 100 μM; 90 min on collagen I
Experimental: The phosphorylation status of DDR1 was analyzed as previously described (12), with the following modifications. After serum-depletion for 16 h, the cells were detached with Versene and then allowed to adhere to collagen I for 60 (MDA-MB-468) or 90 min (HB2) at 37° C. The experiments were terminated by lysing both adherent and non-adherent cells with a lysis buffer (50 mM Tris pH 7.4, 1% Triton-X, 5 mM EDTA, 5 mM EGTA, 50 mM NaCl, 10 μg/ml aprotinin, 2.5 mM benzamidine, 1 mM pefabloc, 1 μg/ml leupeptin and 1 mM Na3VO4). For immunoblotting an anti-DDR1 rabbit polyclonal Ab, sc-532 (Santa Cruz Biotech, Santa Cruz, Calif.) was used at a dilution of 1:10,000. The Ab recognizes DDR1b/c, which is essential because collagen only induces phosphorylation of the b or c isoforms of DDR1 in mammary epithelial cells (10).
Effects of crude peptides on collagen-induced DDR1 phosphorylation in Wnt-5a antisense HB2 cells. Single cells were allowed to adhere to collagen I-coated plates in the presence of the indicated crude peptide (100 μM). (A) Experiments performed in the presence of peptides 167-173. (B) Experiments performed in the presence of peptides 175-180. After 90 min the cells were lysed and DDR1 immunoprecipitated. Subsequently, the immunoprecipitates were subjected to Western blot analysis with an anti-phosphotyrosine Ab and then, after stripping, with an anti-DDR1 Ab to ascertain equal loading. The blots shown are representative of 3 separate experiments The diagrams show densitometric analysis of DDR1 phosphorylation, expressed as per cent of control.

Frz-5 receptor = Frz-5 receptor (Homo sapiens, UniProt Q13467); experiment: MDA-MB-468 cell migration with Frz-5 receptor blocking Ab or control anti-Frz-2 Ab; type: cell-based; set-up: endogenous in cells; host or cells: MDA-MB-468; conditions: formylated hexapeptide 100 μM; Ab 5 μg/ml; 18 h
Sequence of Frz-5 receptor (Q13467 27-585): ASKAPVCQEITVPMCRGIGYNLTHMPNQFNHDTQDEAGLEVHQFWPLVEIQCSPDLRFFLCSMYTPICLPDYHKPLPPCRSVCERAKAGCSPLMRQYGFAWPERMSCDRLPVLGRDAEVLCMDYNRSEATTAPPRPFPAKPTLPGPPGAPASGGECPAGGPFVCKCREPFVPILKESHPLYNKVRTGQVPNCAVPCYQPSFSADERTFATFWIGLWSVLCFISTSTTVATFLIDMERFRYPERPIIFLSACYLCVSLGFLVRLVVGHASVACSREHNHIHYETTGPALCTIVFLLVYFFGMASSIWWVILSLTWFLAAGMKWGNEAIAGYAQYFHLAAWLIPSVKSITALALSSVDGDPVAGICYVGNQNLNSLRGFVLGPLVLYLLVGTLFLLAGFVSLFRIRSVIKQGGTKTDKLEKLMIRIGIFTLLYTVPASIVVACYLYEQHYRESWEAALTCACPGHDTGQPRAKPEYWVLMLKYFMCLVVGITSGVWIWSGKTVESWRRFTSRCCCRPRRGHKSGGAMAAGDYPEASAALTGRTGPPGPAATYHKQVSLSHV
Experimental: The peptide […], corresponding to amino acids 198-217 in the ectodomain of the human Frz-5 receptor was as previously described used to generate a Frz-5 receptor blocking Ab (13). The peptide […], corresponding to amino acids 202-220 in the ectodomain of the human Frz-2 receptor, was used to generate a control anti-Frz-2 Ab. The synthesis of the peptides (the italic letters indicate the Frz-5 and Frz-2 sequences, the cysteine was added for raising and purifying the Ab) and the production of rabbit anti-Frz-5 and anti-Frz-2 antisera were managed by AgriSera (Vännäs, Sweden; permit A69-04 from Ume(a) animal ethic committe). The antisera were affinity purified in the laboratory by coupling the respective peptide antigen to Sulfolink Sepharose over which the respective antisera was then eluted.
Cell migration analyses were performed in a modified Boyden chamber with a polycarbonate membrane (10 μm thick with a porous diameter of 8.0 μm) separating the two chambers (Transwell®; Costar, Cambridge, Mass.). As indicated in some experiments the membranes were coated with collagen by adding collagen-I (10 μg/ml) diluted in 0.25% acetic acid to the upper chamber for 1 h at 37° C., after which it was washed three times with PBS. […] After washing the membranes the number of stained cells per membrane and well was counted in an inverted microscope. […]

MDA-MB-468 cells [3] = experiment: Migration of MDA-MB-468 cells in modified Boyden chamber; type: cell-based, human; conditions: 18 h
Experimental: The HB2 mammary epithelial cell line, a subclone of the MTSV-1.7 cell line, originating from the laboratory of Dr. J. Taylor-Papadimitriou (11) was used. The HB2 cells were cultured in DMEM supplemented with 10% FBS, 5 U/mi penicillin, 0.5 U/ml streptomycin, 2 mM glutamine, 10 μg/ml bovine insulin and 5 μg/ml hydrocortisone. The human mammary carcinoma cell lines MCF-7 and MDA-MB-468 were cultured in DMEM supplemented with 10% FBS, 5 U/ml penicillin, 0.5 U/ml streptomycin and 2 mM glutamine. The pH-experiments were done in MEM supplemented with 10 mM Tris, 0.5% BSA, 5 U/ml penicillin, 0.5 U/ml streptomycin and 2 mM glutamine. The pH 7.4-medium was further supplemented with 4 mM sodium bicarbonate whereas the pH 6.7-medium was not. All cells were incubated at 37° C. in 95% air and 5% CO2.
Cell migration analyses were performed in a modified Boyden chamber with a polycarbonate membrane (10 μm thick with a porous diameter of 8.0 μm) separating the two chambers (Transwell®; Costar, Cambridge, Mass.). As indicated in some experiments the membranes were coated with collagen by adding collagen-I (10 μg/ml) diluted in 0.25% acetic acid to the upper chamber for 1 h at 37° C., after which it was washed three times with PBS. Each experiment was initiated by detaching the cells by Versene treatment for 10-20 min at 37° C., washed, and re-suspended as a single cell suspension in serum-free DMEM medium supplemented with 0.5% BSA. Together with the indicated agonist a 0.2 ml cell suspension (containing 25,000 MDA-MB-468 or 50,000 HB2 cells) was then added to the upper chamber of the transwell. The lower chamber was filled with 0.6 ml serum-free but BSA-containing DMEM medium supplemented with 1 ng/ml of the chemoattractant IGF-I. As a control, IGF-I was excluded in some wells in each separate experiment. The cells were allowed to migrate in the Boyden chamber for 18 h at 37° C. in a humidified atmosphere of 95% air and 5% CO2. The experiments were terminated by removing the non-migratory cells with a cotton-tipped applicator from the upper surface of the membranes. The remaining cells on the lower surface that had migrated through the membrane were stained for 20 min with 0.5% crystal violet diluted in 20% methanol/80% water. After washing the membranes the number of stained cells per membrane and well was counted in an inverted microscope. The value from each separate experiment represents the median value of three individual wells.
Peptide-induced effects on MDA-MB-468 tumour cell migration and their content of F-actin. (A) The cells were allowed to migrate for 18 h in the absence or presence of the indicated peptides (100 μM) The data in panel A are expressed as means±SEM of 8 separate experiments, each performed in triplicate. * p<0.05. (B) The cells were allowed to adhere to collagen I-coated cover glasses for 18h in the absence or presence of peptide 175 (100 μM). The cells were then stained with Alexa488-Phalloidin as described in the methods section. The illustrated micrographs are representative of 5 separate experiments.
as §2
Effects of Frz-5 receptor blocking and reduced pH on the abilities of the formylated hexapeptide and Wnt-5a to inhibit tumour cell migration. […]

For “LGTQGRLCNKTSEGMDGCEL (Human) [peptide 174, Wnt-5a aa 303-322]”, the “adhesion to collagen I, concentration-dependent analysis” value [1] was “not as effective as the shorter peptide 175”.

For “EGMDGCEL (Human) [octapeptide, N-terminal deletion variant of peptide 175]”, the “adhesion to collagen I, N-terminal deletion variants and formylation of peptide 175” value (shortened to “adhesion to collagen I … of peptide 175”) (MDA-MB-468 cells [2]) was “still had adhesion-increasing effects”.

With “MDGCEL [hexapeptide, N-terminal deletion variant of peptide 175]” the “adhesion to collagen I … of peptide 175” value (MDA-MB-468 cells [2]) was “no effect was detectable and none”.

“VKAKKATEIVDQFVA [compound 170, Wnt-5a aa 350-364; the 3 cysteines exchanged to alanines]” was tested, and the “adhesion to collagen I, concentration-dependent analysis” value [1] was “lost or less consistent” and the DDR1 phosphorylation (DDR1) was “significant DDR1 phosphorylation”.

With “formyl-Met-Asp-Gly-Cys-Glu-Leu (For-MDGCEL) [formylated hexapeptide]” the “effect on migration in presence of anti-Frz-5 or anti-Frz-2 Ab” value (Frz-5 receptor) was “mediated via the Frz-5 receptor”, the “inhibition of migration at pH 6.7 versus pH 7.4” value (MDA-MB-468 cells [3]; 10 μM) was “as effective in inhibiting MDA-MB-468 cell migration at pH 6.7 as at pH 7.4” and the “motility (migration)” value (MDA-MB-468 cells [3]; 10 μM) was “significantly impaired the motility”. The “minimal concentration that had a significant effect on migration” value (MDA-MB-468 cells [3]) was 10 µM and the “adhesion to collagen I … of peptide 175” value (MDA-MB-468 cells [2]) was “restored, and possibly even potentiated its effect on adhesion”.

In the case of fMet-Leu-Phe (MLF) [reference compound], the MDA-MB-468 cell adhesion (MDA-MB-468 cells [2]) is reported as 15.7±4.5 and the MDA-MB-468 cell adhesion (MDA-MB-468 cells [2]; listed as N-formyl-Met-Leu-Phe) is reported as “no effect”.

For “DARERERIHAKGSYE [peptide 168, Wnt-5a aa 183-197]”, the “adhesion to collagen I” value ([1]; crude peptide (65% pure) 100 μM, 90 min) was “did not have any effect on adhesion” and the DDR1 phosphorylation (DDR1) was “significant DDR1 phosphorylation”.

— patent US20080207521A1, “PEPTIDE LIGAND TO IMPAIR CANCER CELL MIGRATION” (priority 2005, published 2008)
